Assay results published in article PMC6212833 (mBio, 2018).
Structures can show the parent of a compound that is named as a salt. Where two headings read alike, the source gives them in different places.

Columns and labels:
[1] = tested on: B. mandrillaris trophozoites; test: Nitroxoline structure-activity relationship dose response (CellTiter Glo); format: cell-based, Balamuthia mandrillaris; conditions: for IC50: 72 h; for activity against B. mandrillaris: SAR experiments
B. mandrillaris = tested on: B. mandrillaris; design: method as in PMID 15347743, PMID 23869955, PMID 16579814; conditions: in vitro; cited from earlier work
[2] = tested on: H4 human neuroglioma cells; test: Secondary screening dose response, toxicity to H4 cells; format: cell-based; conditions: 72 h, approximated from dose-response curves
[3] = tested on: B. mandrillaris trophozoites; test: Secondary screening dose response, B. mandrillaris trophozoites; format: cell-based, Balamuthia mandrillaris; conditions: 72 h, read-out: B. mandrillaris IC50
Method: (§1) Secondary screening of hit compounds consisted of dose-response experiments to measure the toxicity of each compound to B. mandrillaris trophozoites, HFF-1 human fibroblast cells, and H4 human neuroglioma cells. Four 384-well plates were prepared prior to addition of drug as follows: one opaque plate (Corning) seeded with 3,000 HFF-1 cells per well in 60 µl complete media, one opaque plate seeded with 2,000 H4 cells per well in 60 µl complete media, one opaque plate containing 30 µl axenic media, and one clear plate (Corning) containing 30 µl axenic media. Opaque plates were used to measure the viability of trophozoites in the CTG assay, and clear plates were used for microscopic examination of cyst formation. HFF-1 and H4 plates were seeded 24 h prior to drug addition. The selected primary screen hits were added from 10 mM DMSO stocks into wells of all four test plates to reach final concentrations ranging from 0.06 µM to 30 µM (10 concentrations, 2-fold serial dilution). Negative-control wells received concentrations of DMSO corresponding to the amount of DMSO in each tested drug well (reaching a maximum of 0.3% DMSO). B. mandrillaris trophozoites were resuspended in axenic media and added to the plates containing drug dilutions in axenic media at a density of 3,000 amoebae per well in a final volume of 60 µl media. All plates were incubated for 72 h. Throughout the incubation period, the clear-bottom B. mandrillaris plate was monitored for large-scale changes to population encystment in response to drug treatment. After the 72-h incubation, 30 µl of CTG reagent was added to all wells of the opaque assay plates and luminescence was measured with a Promega GloMax-Multi+ plate reader at 2, 4, and 8 h after CTG addition.

[4] = tested on: HFF-1 human fibroblast cells; test: Secondary screening dose response, toxicity to HFF-1 cells; format: cell-based; conditions: 72 h, approximated from dose-response curves, read-out: HFF1 IC50
Method: as §1

[5] = tested on: B. mandrillaris trophozoites; test: microbe, parasite or virus in culture; format: cell-based, Balamuthia mandrillaris; conditions: for inhibition at 20 µM: Balamuthia mandrillaris; for % Inhibition: 20 µM
[6] = 8-point dose response in triplicate, read-out: IC50
[7] = Balamuthia mandrillaris, 8-point dose response in triplicate, read-out: IC50
[8] = Balamuthia mandrillaris, 8-point dose response in triplicate
[9] = 72 h, relative to positive and negative controls

Compound: [O-][n+]1cccc2cccc(O)c21 [compound 16, 8-Quinolinol N-oxide]
- IC50 [1, 6]: 165 µM

Compound: OC(Cn1cncn1)(Cn1cncn1)c1ccc(F)cc1F [fluconazole]
- inhibition of amoebic growth (B. mandrillaris): little to no inhibition

Compound: CN(C)CCCN1c2ccccc2CCc2ccccc21 [Imipramine]
- IC50 ([2]; Homo sapiens): > 30 µM
- IC50 ([3]; Balamuthia mandrillaris): > 30 µM
- IC50 ([4]; Homo sapiens, HFF-1): > 30 µM
- inhibition at 20 µM ([5]; 72 h): 42%

Compound: C[n+]1c2cc(N)ccc2cc2ccc(N)cc21 [Acriflavinium Hydrochloride]
- inhibition at 20 µM ([5]; 72 h): 33%

Compound: C=C1C[C@@H]2[C@H](CC[C@]3(C)C(=O)CC[C@@H]23)[C@@]2(C)C=CC(=O)C=C12 [Exemestane]
- IC50 ([2]; Homo sapiens): > 30 µM
- IC50 ([3]; Balamuthia mandrillaris): > 30 µM
- IC50 ([4]; Homo sapiens, HFF-1): > 30 µM
- inhibition at 20 µM ([5]; 72 h): 47%

Compound: CNC(=C[N+](=O)[O-])NCCSCc1ccc(CN(C)C)o1 [Ranitidine]
- IC50 ([2]; Homo sapiens): > 30 µM
- IC50 ([3]; Balamuthia mandrillaris): > 30 µM
- IC50 ([4]; Homo sapiens, HFF-1): > 30 µM
- inhibition at 20 µM ([5]; 72 h): 68%

Compound: CCCCCCCCCCCCCCCC[N+](C)(C)C [Cetrimonium]
- inhibition at 20 µM ([5]; 72 h): 56%

Compound: CO/N=C(\C(=O)N[C@@H]1C(=O)N2C(C(=O)O)=C(COC(N)=O)CS[C@H]12)c1ccco1 [Cefuroxime Sodium]
- inhibition at 20 µM ([5]; 72 h): 41%

Compound: CCCCC(CC)CNC(=N)NC(=N)NCCCCCCNC(=N)NC(=N)NCC(CC)CCCC (stereo not shown) [Alexidine Hydrochloride]
- inhibition at 20 µM ([5]; 72 h): 79%

Compound: Cc1ccc(O)c2ncccc12 [compound 7, 5-Methylquinolin-8-ol]
- IC50 [1, 7]: 19.9 µM

Compound: NC(=O)NO [Hydroxyurea]
- % Inhibition [5]: 44%

Compound: O=[N+]([O-])c1cnc2ccccc2c1O [compound 19, 3-Nitro-4-quinolinol]
- IC50 [1, 8]: 1320 µM

Compound: [H]/N=C(\N/C(=N/[H])NCCCCCCNC(=N)NC(=N)Nc1ccc(Cl)cc1)Nc1ccc(Cl)cc1 [Chlorhexidine]
- inhibition at 20 µM ([5]; 72 h): 64%

Compound: Nc1[nH]c(=O)ncc1F [flucytosine]
- inhibition of amoebic growth (B. mandrillaris): little to no inhibition

Compound: O=C(O)c1ccccc1-c1c2cc(I)c(=O)c(I)c-2oc2c(I)c(O)c(I)cc12 [Erythrosine Sodium]
- inhibition at 20 µM ([5]; 72 h): 66%

Compound: Nc1ccc(S(=O)(=O)Nc2ncccn2)cc1 [sulfadiazine]
- inhibition of amoebic growth (B. mandrillaris): little to no inhibition

Compound: CN(C)c1ccc(C(=C2C=CC(=[N+](C)C)C=C2)c2ccc(N(C)C)cc2)cc1 [Gentian Violet]
- inhibition at 20 µM ([5]; 72 h): 62%

Compound: Cc1cc(N)c2ccccc2[n+]1CCCCCCCCCC[n+]1c(C)cc(N)c2ccccc21 [Dequadin]
- inhibition at 20 µM ([5]; 72 h): 69%

Compound: Oc1cccc2cccnc12 [compound 2, 8-Hydroxyquinoline]
- IC50 [1, 7]: 30.5 µM

Compound: C[C@@H](c1ncncc1F)[C@](O)(Cn1cncn1)c1ccc(F)cc1F [voriconazole]
- inhibition of amoebic growth (B. mandrillaris): amoebicidal or amoebistatic activity

Compound: Cc1cc(-c2ccc(/N=N/c3ccc4c(S(=O)(=O)O)cc(S(=O)(=O)O)c(N)c4c3O)c(C)c2)ccc1/N=N/c1ccc2c(S(=O)(=O)O)cc(S(=O)(=O)O)c(N)c2c1O [Evans Blue]
- inhibition at 20 µM ([5]; 72 h): 74%

Compound: Demecarium Bromide
- % Inhibition [5, 9]: 60%

Compound: CC(C)c1c(C(=O)Nc2ccccc2)c(-c2ccccc2)c(-c2ccc(F)cc2)n1CC[C@@H](O)C[C@@H](O)CC(=O)O [Atorvastatin]
- IC50 ([2]; Homo sapiens): > 30 µM
- IC50 ([3]; Balamuthia mandrillaris): > 30 µM
- IC50 ([4]; Homo sapiens, HFF-1): > 30 µM
- inhibition at 20 µM ([5]; 72 h): 40%

Compound: 6-Nitroquinolone [compound 15]
- IC50 [1, 6]: 189 µM

Compound: CC[n+]1c(-c2ccccc2)c2cc(N)ccc2c2ccc(N)cc21 [Homidium Bromide]
- inhibition at 20 µM ([5]; 72 h): 44%

Compound: CC(=O)[O][Hg][c]1ccccc1 [Phenylmercuric Acetate]
- % Inhibition [5, 9]: 107%

Compound: COCc1c(C(C)C)nc(C(C)C)c(/C=C/[C@@H](O)C[C@@H](O)CC(=O)O)c1-c1ccc(F)cc1 [Cerivastatin, Cerivastatin Na, Cerivastatin]
- IC50 ([2]; Homo sapiens): 0.2 µM
- IC50 ([3]; Balamuthia mandrillaris): 9 µM
- IC50 ([4]; Homo sapiens, HFF-1): < 0.06 µM
- inhibition at 20 µM ([5]; 72 h): 66%

Compound: C[CH2][Hg][S]c1ccccc1C(=O)O [Ethylmercurithiosalicylic acid]
- % Inhibition [5, 9]: 107%

Compound: Oc1ccc(Cl)cc1Cc1cc(Cl)ccc1O [Dichlorophene, Dichlorophen, Dichlorophene]
- inhibition at 20 µM ([5]; 72 h): 42%

Compound: c1cnc2c(c1)ccc1cccnc12 [compound 14, 1,10-Phenanthroline]
- IC50 [1, 8]: 15.9 µM
- activity against B. mandrillaris [1]: demonstrated activity against B. mandrillaris

Compound: N=C(N)c1ccc(/N=N/Nc2ccc(C(=N)N)cc2)cc1 [Diminazene]
- inhibition at 20 µM ([5]; 72 h): 46%

Compound: NC(=O)c1ccc[n+]([C@@H]2O[C@H](COP(=O)([O-])OP(=O)(O)OC[C@H]3O[C@@H](n4cnc5c(N)ncnc54)[C@H](O)[C@@H]3O)[C@@H](O)[C@H]2O)c1 [Nadide]
- inhibition at 20 µM ([5]; 72 h): 87%

Compound: Oc1ccc(Br)c2cccnc12 [compound 6, 5-Bromo-8-hydroxyquinoline]
- IC50 [1, 7]: 48.9 µM

Compound: O=S(=O)(O)c1ccc(O)c2ncccc12 [compound 13, 8-Hydroxy-5-quinolinesulfonic acid]
- IC50 ([1]; 8-point dose response in triplicate, listed as 8-Hydroxy-5-quinolinesulfonic acid [13]): 338 µM
- IC50 [1, 8]: 338 µM
- activity against B. mandrillaris [1]: inactive

Compound: Cc1c(NC(=O)c2cccnc2)c(=O)n(-c2ccccc2)n1C [Nifenazone]
- IC50 ([2]; Homo sapiens): > 30 µM
- IC50 ([3]; Balamuthia mandrillaris): > 30 µM
- IC50 ([4]; Homo sapiens, HFF-1): > 30 µM
- inhibition at 20 µM ([5]; 72 h): 70%

Compound: Plicamycin
- IC50 [2]: < 0.06 µM
- IC50 ([3]; approximated from dose-response curves): > 30 µM
- IC50 [4]: < 0.06 µM
- % Inhibition [5]: 45%

Compound: O=C(O)c1ccc2ccccc2n1 [compound 18, 2-Quinolinecarboxylic acid]
- IC50 ([1]; Balamuthia mandrillaris): 884 µM

Compound: CCOc1ccc([N+](=O)[O-])c2cccnc12 [compound 17, 8-Ethoxy-5-nitroquinoline]
- IC50 [1, 6]: 434 µM

Compound: CC#C[C@]1(O)CC[C@H]2[C@@H]3CCC4=CC(=O)CCC4=C3[C@@H](c3ccc(N(C)C)cc3)C[C@@]21C [Mifepristone]
- IC50 ([2]; Homo sapiens): > 30 µM
- IC50 ([3]; Balamuthia mandrillaris): > 30 µM
- IC50 ([4]; Homo sapiens, HFF-1): > 30 µM
- inhibition at 20 µM ([5]; 72 h): 43%

Compound: O=[N+]([O-])c1cccc2ncccc12 [compound 3, 5-Nitroquinoline]
- IC50 [1, 7]: 82.7 µM
